Data published in the NIST ThermoML archive (doi:10.1016/j.tca.2013.08.002).
Numbers after ± are expanded uncertainties.

Experiment: mn = molality of the nth substance listed, in mol/kg
Conditions: 101 kPa, Liquid; for speed of sound: Frequency=1.999 MHz, Sing-around technique in a fixed-path interferometer; for mass density: Vibrating tube method

C[N+](C)(C)CC(=O)[O-] [(trimethylammonio)acetate] + O
Conditions | mass density [kg/m3] | speed of sound [m/s]
288.15 K, m1 = 0.0482 | 1000.1 ± 2 | 1471.1 ± 10
288.15 K, m1 = 0.1063 | 1001.2 ± 2 | 1477.4 ± 10
288.15 K, m1 = 0.5027 | 1008.5 ± 2 | 1517.6 ± 10
288.15 K, m1 = 1.002 | 1016.8 ± 2 | 1562.8 ± 10
288.15 K, m1 = 1.504 | 1024.3 ± 2 | 1599.7 ± 10
288.15 K, m1 = 2.005 | 1030.9 ± 2 | 1628.1 ± 10
288.15 K, m1 = 2.519 | 1036.6 ± 2 | 1648.9 ± 10
288.15 K, m1 = 3.008 | 1041.8 ± 2 | 1658.3 ± 10
293.15 K, m1 = 0.0482 | 999.1 ± 2 | 1487.7 ± 10
293.15 K, m1 = 0.1063 | 1000.2 ± 2 | 1493.8 ± 10
293.15 K, m1 = 0.5027 | 1007.2 ± 2 | 1535.4 ± 10
293.15 K, m1 = 1.002 | 1015.1 ± 2 | 1580.7 ± 10
293.15 K, m1 = 1.504 | 1022.1 ± 2 | 1619.5 ± 10
293.15 K, m1 = 2.005 | 1028.1 ± 2 | 1649.8 ± 10
293.15 K, m1 = 2.519 | 1033.6 ± 2 | 1670.4 ± 10
293.15 K, m1 = 3.008 | 1038.5 ± 2 | 1680.1 ± 10
298.15 K, m1 = 0.0482 | 997.9 ± 2 | 1501.6 ± 10
298.15 K, m1 = 0.1063 | 998.9 ± 2 | 1507.6 ± 10
298.15 K, m1 = 0.5027 | 1005.6 ± 2 | 1547.2 ± 10
298.15 K, m1 = 1.002 | 1013.1 ± 2 | 1593.1 ± 10
298.15 K, m1 = 1.504 | 1019.9 ± 2 | 1630 ± 10
298.15 K, m1 = 2.005 | 1025.8 ± 2 | 1656.8 ± 10
298.15 K, m1 = 2.519 | 1031 ± 2 | 1674.5 ± 10
298.15 K, m1 = 3.008 | 1035.4 ± 2 | 1698.9 ± 10
303.15 K, m1 = 0.0482 | 996.6 ± 2 | 1514.1 ± 10
303.15 K, m1 = 0.1063 | 997.6 ± 2 | 1520 ± 10
303.15 K, m1 = 0.5027 | 1004.2 ± 2 | 1558.6 ± 10
303.15 K, m1 = 1.002 | 1011.6 ± 2 | 1602.3 ± 10
303.15 K, m1 = 1.504 | 1018 ± 2 | 1639.6 ± 10
303.15 K, m1 = 2.005 | 1023.5 ± 2 | 1669.8 ± 10
303.15 K, m1 = 2.519 | 1028.4 ± 2 | 1689.7 ± 10
303.15 K, m1 = 3.008 | 1032.8 ± 2 | 1715.2 ± 10
308.15 K, m1 = 0.0482 | 994.9 ± 2 | 1524.2 ± 10
308.15 K, m1 = 0.1063 | 995.9 ± 2 | 1529.9 ± 10
308.15 K, m1 = 0.5027 | 1002.5 ± 2 | 1567.5 ± 10
308.15 K, m1 = 1.002 | 1009.9 ± 2 | 1610.2 ± 10
308.15 K, m1 = 1.504 | 1016.4 ± 2 | 1648.1 ± 10
308.15 K, m1 = 2.005 | 1022 ± 2 | 1679.8 ± 10
308.15 K, m1 = 2.519 | 1027.1 ± 2 | 1700 ± 10
308.15 K, m1 = 3.008 | 1031.2 ± 2 | 1726.5 ± 10
313.15 K, m1 = 0.0482 | 993.1 ± 2 | 1533.4 ± 10
313.15 K, m1 = 0.1063 | 994.1 ± 2 | 1538.8 ± 10
313.15 K, m1 = 0.5027 | 1000.7 ± 2 | 1574.2 ± 10
313.15 K, m1 = 1.002 | 1007.9 ± 2 | 1615.7 ± 10
313.15 K, m1 = 1.504 | 1014.4 ± 2 | 1652.3 ± 10
313.15 K, m1 = 2.005 | 1019.9 ± 2 | 1682.8 ± 10
313.15 K, m1 = 2.519 | 1025 ± 2 | 1705.9 ± 10
313.15 K, m1 = 3.008 | 1029.1 ± 2 | 1737.1 ± 10
318.15 K, m1 = 0.0482 | 991.1 ± 2 | 1540.8 ± 10
318.15 K, m1 = 0.1063 | 992.1 ± 2 | 1546 ± 10
318.15 K, m1 = 0.5027 | 998.7 ± 2 | 1580.3 ± 10
318.15 K, m1 = 1.002 | 1006 ± 2 | 1620.9 ± 10
318.15 K, m1 = 1.504 | 1012.4 ± 2 | 1656.7 ± 10
318.15 K, m1 = 2.005 | 1018 ± 2 | 1688.3 ± 10
318.15 K, m1 = 2.519 | 1022.8 ± 2 | 1713.8 ± 10
318.15 K, m1 = 3.008 | 1027.3 ± 2 | 1743.7 ± 10
